Key:
COLO 205 = assay: Cytotoxicity against human COLO205 cells at 10 uM after 48 hrs by SRB assay; assay type: functional; details: COLO 205, 48 h, read-out: GI
IGROV-1 = assay: Cytotoxicity against human IGROV1 cells at 10 uM after 48 hrs by SRB assay; assay type: functional; details: IGROV-1, 48 h, read-out: GI
NCI-H23 = assay: Cytotoxicity against human NCI-H23 cells at 10 uM after 48 hrs by SRB assay; assay type: functional; details: NCI-H23, 48 h, read-out: GI
NCI-H226 = assay: Cytotoxicity against human NCI-H226 cells at 10 uM after 48 hrs by SRB assay; assay type: functional; details: NCI-H226, 48 h, read-out: GI
OVCAR-5 = assay: Cytotoxicity against human OVCAR5 cells at 10 uM after 48 hrs by SRB assay; assay type: functional; details: OVCAR-5, 48 h, read-out: GI
SF-295 = assay: Cytotoxicity against human SF295 cells at 10 uM after 48 hrs by SRB assay; assay type: functional; details: SF-295, 48 h, read-out: GI
UACC-257 = assay: Cytotoxicity against human UACC257 cells at 10 uM after 48 hrs by SRB assay; assay type: functional; details: UACC-257, 48 h, read-out: GI
OVCAR-8 = assay: Cytotoxicity against human OVCAR8 cells at 10 uM after 48 hrs by SRB assay; assay type: functional; details: OVCAR-8, 48 h, read-out: GI
NCI/ADR-RES = assay: Cytotoxicity against human NCI/ADR-RES cells at 10 uM after 48 hrs by SRB assay; assay type: functional; details: read-out: GI
UACC-62 = assay: Cytotoxicity against human UACC62 cells at 10 uM after 48 hrs by SRB assay; assay type: functional; details: UACC-62, 48 h, read-out: GI
HT-29 = assay: Cytotoxicity against human HT-29 cells at 10 uM after 48 hrs by SRB assay; assay type: functional; details: HT-29, 48 h, read-out: GI
NCI-H460 = assay: Cytotoxicity against human NCI-H460 cells at 10 uM after 48 hrs by SRB assay; assay type: functional; details: NCI-H460, 48 h, read-out: GI
Hs-578T = assay: Cytotoxicity against human Hs578T cells at 10 uM after 48 hrs by SRB assay; assay type: functional; details: read-out: GI
UO-31 = assay: Cytotoxicity against human UO31 cells at 10 uM after 48 hrs by SRB assay; assay type: functional; details: UO-31, 48 h, read-out: GI
786-0 = assay: Cytotoxicity against human 786-0 cells at 10 uM after 48 hrs by SRB assay; assay type: functional; details: 786-0, 48 h, read-out: GI
MDA-MB-231 = assay: Cytotoxicity against human MDA-MB-231 cells at 10 uM after 48 hrs by SRB assay; assay type: functional; details: MDA-MB-231, 48 h, read-out: GI
A549 = assay: Cytotoxicity against human A549 cells at 10 uM after 48 hrs by SRB assay; assay type: functional; details: A549, 48 h, read-out: GI
HCT-116 = assay: Cytotoxicity against human HCT116 cells at 10 uM after 48 hrs by SRB assay; assay type: functional; details: HCT-116, 48 h, read-out: GI
T47D = assay: Cytotoxicity against human T47D cells at 10 uM after 48 hrs by SRB assay; assay type: functional; details: read-out: GI
SR = assay: Cytotoxicity against human SR cells at 10 uM after 48 hrs by SRB assay; assay type: functional; details: read-out: GI
LOX IMVI = assay: Cytotoxicity against human LOXIMVI cells at 10 uM after 48 hrs by SRB assay; assay type: functional; details: read-out: GI
MDA-MB-435 = assay: Cytotoxicity against human MDA-MB-435 cells at 10 uM after 48 hrs by SRB assay; assay type: functional; details: MDA-MB-435, 48 h, read-out: GI
PC-3 = assay: Cytotoxicity against human PC3 cells at 10 uM after 48 hrs by SRB assay; assay type: functional; details: PC-3, 48 h, read-out: GI
HOP-92 = assay: Cytotoxicity against human HOP92 cells at 10 uM after 48 hrs by SRB assay; assay type: functional; details: HOP-92, 48 h, read-out: GI
SNB-19 = assay: Cytotoxicity against human SNB19 cells at 10 uM after 48 hrs by SRB assay; assay type: functional; details: SNB-19, 48 h, read-out: GI
TK-10 = assay: Cytotoxicity against human TK10 cells at 10 uM after 48 hrs by SRB assay; assay type: functional; details: TK-10, 48 h, read-out: GI
SW-620 = assay: Cytotoxicity against human SW620 cells at 10 uM after 48 hrs by SRB assay; assay type: functional; details: SW-620, 48 h, read-out: GI
A498 = assay: Cytotoxicity against human A498 cells at 10 uM after 48 hrs by SRB assay; assay type: functional; details: A498, 48 h, read-out: GI
BT-549 = assay: Cytotoxicity against human BT549 cells at 10 uM after 48 hrs by SRB assay; assay type: functional; details: BT-549, 48 h, read-out: GI
SK-MEL-2 = assay: Cytotoxicity against human SK-MEL-2 cells at 10 uM after 48 hrs by SRB assay; assay type: functional; details: SK-MEL-2, 48 h, read-out: GI
KM12 = assay: Cytotoxicity against human KM12 cells at 10 uM after 48 hrs by SRB assay; assay type: functional; details: KM12, 48 h, read-out: GI
K562 = assay: Cytotoxicity against human K562 cells at 10 uM after 48 hrs by SRB assay; assay type: functional; details: K562, 48 h, read-out: GI
NCI-H522 = assay: Cytotoxicity against human NCI-H522 cells at 10 uM after 48 hrs by SRB assay; assay type: functional; details: NCI-H522, 48 h, read-out: GI
OVCAR-4 = assay: Cytotoxicity against human OVCAR4 cells at 10 uM after 48 hrs by SRB assay; assay type: functional; details: OVCAR-4, 48 h, read-out: GI
MCF7 = assay: Cytotoxicity against human MCF7 cells at 10 uM after 48 hrs by SRB assay; assay type: functional; details: MCF7, 48 h, read-out: GI
SK-MEL-5 = assay: Cytotoxicity against human SK-MEL-5 cells at 10 uM after 48 hrs by SRB assay; assay type: functional; details: SK-MEL-5, 48 h, read-out: GI
HCT-15 = assay: Cytotoxicity against human HCT15 cells at 10 uM after 48 hrs by SRB assay; assay type: functional; details: HCT-15, 48 h, read-out: GI
[1] = Cytotoxicity against human EKVX cells at 10 uM after 48 hrs by SRB assay; assay type: functional; details: read-out: GI
[2] = n-Octanol-phosphate buffer partition coefficient, log P of the compound at pH 7.4 by shake flask method; assay type: physicochemical
SK-MEL-28 = assay: Cytotoxicity against human SK-MEL-28 cells at 10 uM after 48 hrs by SRB assay; assay type: functional; details: SK-MEL-28, 48 h, read-out: GI
RPMI-8226 = assay: Cytotoxicity against human RPMI8226 cells at 10 uM after 48 hrs by SRB assay; assay type: functional; details: RPMI-8226, 48 h, read-out: GI
MOLT-4 = assay: Cytotoxicity against human MOLT4 cells at 10 uM after 48 hrs by SRB assay; assay type: functional; details: MOLT-4, 48 h, read-out: GI

In the case of C=CCn1c(C)nc2ccc(Nc3nc(N4CCOCC4)nc4ccccc34)cc21, the inhibition of growth at 10 µM (COLO 205) is reported as less than 10%, the inhibition of growth at 10 µM (IGROV-1) is reported as less than 10% and the inhibition of growth at 10 µM (NCI-H23) is reported as less than 10%. The inhibition of growth at 10 µM (NCI-H226) was less than 10%, the inhibition of growth at 10 µM (OVCAR-5) was less than 10% and the inhibition of growth at 10 µM (SF-295) was less than 10%. For the same molecule, the inhibition of growth at 10 µM (UACC-257) was less than 10%, the inhibition of growth at 10 µM (OVCAR-8) was 20.1% and the inhibition of growth at 10 µM (NCI/ADR-RES) was 23.6%. The inhibition of growth at 10 µM (UACC-62) was less than 10%, the inhibition of growth at 10 µM (HT-29) was 34.7% and the inhibition of growth at 10 µM (NCI-H460) was less than 10%. It also gave an inhibition of growth at 10 µM (Hs-578T) of less than 10%, an inhibition of growth at 10 µM (UO-31) of 14.7% and an inhibition of growth at 10 µM (786-0) of less than 10%. It also gave an inhibition of growth at 10 µM (MDA-MB-231) of less than 10%, an inhibition of growth at 10 µM (A549) of 11.8% and an inhibition of growth at 10 µM (HCT-116) of less than 10%. It also gave an inhibition of growth at 10 µM (T47D) of 11.2%, an inhibition of growth at 10 µM (SR) of less than 10% and an inhibition of growth at 10 µM (LOX IMVI) of less than 10%. It also gave an inhibition of growth at 10 µM (MDA-MB-435) of less than 10%, an inhibition of growth at 10 µM (PC-3) of 11.4% and an inhibition of growth at 10 µM (HOP-92) of less than 10%. It also gave an inhibition of growth at 10 µM (SNB-19) of less than 10%, an inhibition of growth at 10 µM (TK-10) of less than 10% and an inhibition of growth at 10 µM (SW-620) of less than 10%. For the same molecule, the inhibition of growth at 10 µM (A498) was 41.2%, the inhibition of growth at 10 µM (BT-549) was less than 10% and the inhibition of growth at 10 µM (SK-MEL-2) was less than 10%. It also gave an inhibition of growth at 10 µM (KM12) of 11.9%, an inhibition of growth at 10 µM (K562) of 35.6% and an inhibition of growth at 10 µM (NCI-H522) of less than 10%. It also gave an inhibition of growth at 10 µM (OVCAR-4) of less than 10%, an inhibition of growth at 10 µM (MCF7) of less than 10% and an inhibition of growth at 10 µM (SK-MEL-5) of less than 10%. For the same molecule, the inhibition of growth at 10 µM (HCT-15) was less than 10%, the inhibition of growth at 10 µM [1] was less than 10% and the logD [2] was 2.81. For the same molecule, the inhibition of growth at 10 µM (SK-MEL-28) was less than 10%.

With C=CCn1c(C)nc2cc(Nc3nc(N4CCCC4)nc4ccccc34)ccc21 the inhibition of growth at 10 µM (IGROV-1) was less than 10%, the inhibition of growth at 10 µM (NCI-H23) was less than 10% and the inhibition of growth at 10 µM (NCI-H226) was 22%. The inhibition of growth at 10 µM (OVCAR-5) was less than 10%, the inhibition of growth at 10 µM (SF-295) was less than 10% and the inhibition of growth at 10 µM (UACC-257) was less than 10%. The inhibition of growth at 10 µM (OVCAR-8) was less than 10%, the inhibition of growth at 10 µM (NCI/ADR-RES) was less than 10% and the inhibition of growth at 10 µM (UACC-62) was less than 10%. For the same molecule, the inhibition of growth at 10 µM (HT-29) was less than 10%, the inhibition of growth at 10 µM (NCI-H460) was less than 10% and the inhibition of growth at 10 µM (Hs-578T) was less than 10%. The inhibition of growth at 10 µM (UO-31) was 10.1%, the inhibition of growth at 10 µM (786-0) was 11.1% and the inhibition of growth at 10 µM (MDA-MB-231) was less than 10%. It also gave an inhibition of growth at 10 µM (A549) of 10.1%, an inhibition of growth at 10 µM (HCT-116) of less than 10% and an inhibition of growth at 10 µM (T47D) of 22.6%. The inhibition of growth at 10 µM (SR) was 11%, the inhibition of growth at 10 µM (LOX IMVI) was less than 10% and the inhibition of growth at 10 µM (RPMI-8226) was 12.2%. It also gave an inhibition of growth at 10 µM (MDA-MB-435) of less than 10%, an inhibition of growth at 10 µM (PC-3) of 18.2% and an inhibition of growth at 10 µM (MOLT-4) of less than 10%. The inhibition of growth at 10 µM (HOP-92) was 15.5%, the inhibition of growth at 10 µM (SNB-19) was less than 10% and the inhibition of growth at 10 µM (TK-10) was less than 10%. The inhibition of growth at 10 µM (SW-620) was less than 10%, the inhibition of growth at 10 µM (A498) was 27.6% and the inhibition of growth at 10 µM (BT-549) was less than 10%. For the same molecule, the inhibition of growth at 10 µM (SK-MEL-2) was less than 10%, the inhibition of growth at 10 µM (KM12) was less than 10% and the inhibition of growth at 10 µM (K562) was 14.9%. For the same molecule, the inhibition of growth at 10 µM (NCI-H522) was less than 10%, the inhibition of growth at 10 µM (OVCAR-4) was less than 10% and the inhibition of growth at 10 µM (MCF7) was less than 10%. For the same molecule, the inhibition of growth at 10 µM (SK-MEL-5) was less than 10%, the inhibition of growth at 10 µM (HCT-15) was less than 10% and the inhibition of growth at 10 µM [1] was less than 10%. For the same molecule, the logD [2] was 2.51 and the inhibition of growth at 10 µM (SK-MEL-28) was less than 10%.

Reference: ChEMBL document CHEMBL2380212, “Synthesis, single crystal and antitumor activities of benzimidazole-quinazoline hybrids” (Bioorg Med Chem Lett, 2013)
